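Exposure lasted 48 hours, with cells grown in 96-well plates and compounds tested at five concentrations. Definition used: TGI = concentration required for complete inhibition of growth.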
Key:
Assay in all cases: DTP human tumour cell line panel, 48 h
[1] = system: 786-0 renal
[2] = system: A498 renal
[3] = system: A549 NSCLC
[4] = system: ACHN renal
[5] = system: BT-549 breast
[6] = system: CAKI-1 renal
[7] = system: CCRF-CEM leukemia
[8] = system: COLO 205 colon
[9] = system: DU-145 prostate
[10] = system: EKVX NSCLC
[11] = system: HCT-116 colon
[12] = system: HCT-15 colon
[13] = system: HL-60(TB) leukemia
[14] = system: HOP-62 NSCLC
[15] = system: HOP-92 NSCLC
[16] = system: HS 578T breast
[17] = system: HT29 colon
[18] = system: IGROV1 ovarian
[19] = system: K-562 leukemia
[20] = system: KM12 colon
[21] = system: LOX IMVI melanoma
[22] = system: M14 melanoma
[23] = system: MALME-3M melanoma
[24] = system: MCF7 breast
[25] = system: MDA-MB-231 breast
[26] = system: MDA-MB-435
[27] = system: MDA-N
[28] = system: MOLT-4 leukemia
[29] = system: NCI-H226 lung
[30] = system: NCI-H23 lung
[31] = system: NCI-H522 lung
[32] = system: NCI/ADR-RES ovarian
[33] = system: OVCAR-3 ovarian
[34] = system: OVCAR-4 ovarian
[35] = system: OVCAR-5 ovarian
[36] = system: OVCAR-8 ovarian
[37] = system: PC-3 prostate
[38] = system: RPMI-8226 leukemia
[39] = system: RXF 393 renal
[40] = system: SF-268 CNS
[41] = system: SF-295 CNS
[42] = system: SF-539 CNS
[43] = system: SK-MEL-2 melanoma
[44] = system: SK-MEL-28 melanoma
[45] = system: SK-MEL-5 melanoma
[46] = system: SK-OV-3 ovarian
[47] = system: SN12C renal
[48] = system: SNB-19 CNS
[49] = system: SNB-75 CNS
[50] = system: SR leukemia
[51] = system: SW-620 colon
[52] = system: T-47D breast
[53] = system: TK-10 renal
[54] = system: U251 CNS
[55] = system: UACC-257 melanoma
[56] = system: UO-31 renal

In the case of `Cc1ccc([N+](=O)[O-])cc1S(=O)(=O)Nc1ccc(C2=NN(C(=O)c3ccccc3)C(c3ccccc3)C2)cc1` (stereo unspecified), the TGI [1] is reported as 48.2 µM, the TGI [2] is reported as 51.3 µM and the TGI [3] is reported as > 100 µM. The TGI [4] was 93.6 µM, the TGI [5] was 96.9 µM and the TGI [6] was > 100 µM. For the same molecule, the TGI [7] was > 100 µM, the TGI [8] was 33.9 µM and the TGI [9] was > 100 µM. For the same molecule, the TGI [10] was 59.7 µM, the TGI [11] was > 100 µM and the TGI [12] was > 100 µM. The TGI [13] was 81.8 µM, the TGI [14] was 72 µM and the TGI [15] was 62.9 µM. The TGI [16] was > 100 µM, the TGI [17] was > 100 µM and the TGI [18] was 95.2 µM. For the same molecule, the TGI [19] was > 100 µM, the TGI [20] was > 100 µM and the TGI [21] was > 100 µM. The TGI [22] was > 100 µM, the TGI [23] was 66.6 µM and the TGI [24] was 75.7 µM. For the same molecule, the TGI [25] was 46.3 µM, the TGI [26] was > 100 µM and the TGI [27] was 67.4 µM. For the same molecule, the TGI [28] was > 100 µM, the TGI [29] was 72.2 µM and the TGI [30] was 68.2 µM. The TGI [31] was 58.2 µM, the TGI [32] was > 100 µM and the TGI [33] was 49 µM. For the same molecule, the TGI [34] was > 100 µM, the TGI [35] was > 100 µM and the TGI [36] was > 100 µM. The TGI [37] was > 100 µM, the TGI [38] was > 100 µM and the TGI [39] was 57.3 µM. The TGI [40] was > 100 µM, the TGI [41] was > 100 µM and the TGI [42] was 55.2 µM. The TGI [43] was 38.7 µM, the TGI [44] was > 100 µM and the TGI [45] was 30.4 µM. For the same molecule, the TGI [46] was 73.7 µM, the TGI [47] was 63.1 µM and the TGI [48] was > 100 µM. The TGI [49] was 49.9 µM, the TGI [50] was > 100 µM and the TGI [51] was > 100 µM. The TGI [52] was 97.5 µM, the TGI [53] was 68.8 µM and the TGI [54] was > 100 µM. For the same molecule, the TGI [55] was 64.7 µM and the TGI [56] was > 100 µM.

Reference: PubChem BioAssay (NCI)
